We go through 14 molecules from ChEMBL document CHEMBL4392888, “Isolation of Sesquiterpene-Amino Acid Conjugates, Onopornoids A-D, and a Flavonoid Glucoside from Onopordum alexandrinum” (J Nat Prod, 2019).

Each structure is given as a SMILES string.

For one assay, the target named is T1, Tyrosinase (Homo sapiens, UniProt P14679).
T1 sequence (P14679 whole entry): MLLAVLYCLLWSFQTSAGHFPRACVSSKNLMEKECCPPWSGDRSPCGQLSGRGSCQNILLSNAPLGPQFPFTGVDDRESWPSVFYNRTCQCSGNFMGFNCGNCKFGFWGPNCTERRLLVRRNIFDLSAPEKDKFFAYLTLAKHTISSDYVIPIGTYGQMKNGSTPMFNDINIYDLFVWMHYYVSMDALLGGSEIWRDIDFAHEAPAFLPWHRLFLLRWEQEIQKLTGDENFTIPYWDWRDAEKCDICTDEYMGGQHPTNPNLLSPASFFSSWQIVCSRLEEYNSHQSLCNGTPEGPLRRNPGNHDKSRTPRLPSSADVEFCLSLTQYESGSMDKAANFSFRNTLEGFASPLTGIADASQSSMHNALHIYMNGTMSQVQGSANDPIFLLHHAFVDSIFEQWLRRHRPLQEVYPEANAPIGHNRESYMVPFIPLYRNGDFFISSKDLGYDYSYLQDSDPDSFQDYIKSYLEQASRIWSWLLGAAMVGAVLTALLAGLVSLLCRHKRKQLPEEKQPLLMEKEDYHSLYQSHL
The experiment in a line: Inhibition of tyrosinase (unknown origin).

A further assay deals with Bacteria. Briefly: Antimicrobial activity against bacteria. It counts as functional, organism-based.
The test system of a further assay is Leishmania. Briefly: Antimicrobial activity against Leishmania. In kind it is functional, organism-based.
Assay [1] can be described thus: Antioxidant activity assessed as DPPH radical scavenging activity incubated for 30 mins by UV-spectrophotometric method. It counts as functional. (The DPPH test is a chemical assay of radical scavenging.)

The IC50 is the concentration that gives 50% inhibition. As for `COC(=O)[C@H]1O[C@@H](Oc2cc(O)c3c(=O)cc(-c4ccc(OC)cc4)oc3c2)[C@H](O)[C@@H](O)[C@@H]1O`, the IC50 at Tyrosinase, in the assay on Bacteria and in the assay with Leishmania was above 50 µM throughout.
In the case of `C=C[C@]1(C)C[C@H](OC(=O)/C(=C/C)CO)[C@@H]2[C@H](OC(=O)[C@H]2CN2CCC[C@H]2C(=O)O)[C@H]1C(=C)CO`, the IC50 at Tyrosinase, in the assay with Bacteria and in the assay on Leishmania was above 50 µM throughout.
Turning to `C=C(CO)C(=O)O[C@H]1C/C(C)=C/CC/C(CO)=C/[C@H]2OC(=O)[C@@H](CN3CCC[C@H]3C(=O)O)[C@H]12`, the half-inhibitory concentration (IC50) on Tyrosinase, in the assay on Bacteria and in the assay with Leishmania was above 50 µM in each case.
As for `C=C[C@]1(C)C[C@H](OC(=O)[C@@H](C)CO)[C@@H]2[C@H](OC(=O)[C@H]2CN2CCC[C@H]2C(=O)O)[C@H]1C(=C)CO`, the concentration for half-maximal inhibition (IC50) against Tyrosinase, with Bacteria and with Leishmania was above 50 µM in each case.
Turning to `C=C[C@]1(C)C[C@H](OC(=O)C(=C)CO)[C@@H]2[C@H](OC(=O)[C@H]2CN2CCC[C@H]2C(=O)O)[C@H]1C(=C)CO`, the half-maximal inhibitory concentration (IC50) against Tyrosinase, with Bacteria and with Leishmania was above 50 µM in each case.
With `C[C@@H]1O[C@@H](Oc2cc(O)c3c(=O)cc(-c4ccc(O)cc4)oc3c2)[C@H](O)[C@H](O)[C@H]1O`, the IC50 on Tyrosinase, in the assay on Bacteria and with Leishmania was above 50 µM in each case.
On to `O=C(/C=C/c1ccc(O)c(O)c1)O[C@H]1[C@H](O)[C@@H](O)[C@H](Oc2cc(O)c3c(=O)cc(-c4ccc(O)c(O)c4)oc3c2)O[C@@H]1CO`, for which the IC50 against Tyrosinase is above 50 µM; in the assay with Bacteria, above 50 µM; in assay [1], 68.9 µM; with Leishmania, above 50 µM.
As to `COC(=O)[C@H]1O[C@@H](Oc2cc(O)c3c(=O)cc(-c4ccc(O)cc4)oc3c2)[C@H](O)[C@@H](O)[C@@H]1O`, the IC50 on Tyrosinase, in the assay on Bacteria and with Leishmania was above 50 µM throughout.
As for `COc1ccc(-c2cc(=O)c3c(O)cc(O[C@@H]4O[C@H](CO[C@@H]5O[C@@H](C)[C@H](O)[C@@H](O)[C@H]5O)[C@@H](O)[C@H](O)[C@H]4O)cc3o2)cc1` [ACACIIN], the IC50 on Tyrosinase, in the assay on Bacteria and in the assay on Leishmania was above 50 µM throughout.
For `O=c1cc(-c2ccc(O)cc2)oc2cc(O[C@@H]3O[C@H](CO)[C@@H](O)[C@H](O)[C@H]3O)cc(O)c12` [APIGETRIN], the IC50 on Tyrosinase, in the assay on Bacteria and in the assay on Leishmania was above 50 µM each time.
`COc1ccc(C[C@H]2COC(=O)[C@@H]2Cc2ccc(O[C@@H]3O[C@H](CO)[C@@H](O)[C@H](O)[C@H]3O)c(OC)c2)cc1OC` [ARCTIIN]: the IC50 on Tyrosinase, in the assay with Bacteria and in the assay with Leishmania was above 50 µM each time.
In the case of `O=c1c(O[C@@H]2O[C@H](CO)[C@@H](O)[C@H](O)[C@H]2O)c(-c2ccc(O)c(O)c2)oc2cc(O)cc(O)c12` [ISOQUERCETIN], the IC50 on Tyrosinase is above 50 µM; in the assay on Bacteria it was above 50 µM; in assay [1] it was 75.3 µM; in the assay on Leishmania it was above 50 µM.
`C[C@@H]1O[C@@H](OC[C@H]2O[C@@H](Oc3cc(O)c4c(=O)cc(-c5ccc(O)cc5)oc4c3)[C@H](O)[C@@H](O)[C@@H]2O)[C@H](O)[C@H](O)[C@H]1O` [ISORHOIFOLIN]: the IC50 against Tyrosinase, in the assay on Bacteria and with Leishmania was above 50 µM each time.
`COc1ccc(-c2cc(=O)c3c(O)cc(O[C@@H]4O[C@H](CO)[C@@H](O)[C@H](O)[C@H]4O)cc3o2)cc1` [TILIANINE]: the IC50 on Tyrosinase, in the assay with Bacteria and in the assay with Leishmania was above 50 µM each time.
